Measurements reported in US8846749B2, “Anticancer-aiding compound, method for preparing the same, anticancer-aiding composition containing the same and method for reducing anticancer drug resistance using the same” (Ewha University-Industry Collaboration Foundation, priority 2009, dated 2014).
pIC50: −log10 of the molar value.

How the values were obtained:
[1] = target: P-gp (Homo sapiens, UniProt P08183); settings: 1 h, 100 μM
[2] = test system: MCF-7/ADR cells; test: Effects of compounds on cytotoxicity of daunomycin (SRB staining); format: cell-based; settings: Homo sapiens, NCI/ADR-RES, daunomycin alone (DMSO control), 2-hour incubation, SRB after 3 days
Procedure: The cells were cultured to confluence on the plate at 37° C. for 24 hours.
At this time, the group to which only DMSO was added in place of the compounds in accordance with the present invention was taken as a control. […] After 3 days, cytotoxicity was examined according to an SRB staining method which is briefly described as follows. Cells were fixed with 10% TCA for one hour, washed 4 times with water, and then dried. An SRB reagent (0.4% w/v in 1% acetic acid) was added to each well and one hour later, the plate was washed 4 times with 1% acetic acid.

Sequence of P-gp (P08183 whole entry): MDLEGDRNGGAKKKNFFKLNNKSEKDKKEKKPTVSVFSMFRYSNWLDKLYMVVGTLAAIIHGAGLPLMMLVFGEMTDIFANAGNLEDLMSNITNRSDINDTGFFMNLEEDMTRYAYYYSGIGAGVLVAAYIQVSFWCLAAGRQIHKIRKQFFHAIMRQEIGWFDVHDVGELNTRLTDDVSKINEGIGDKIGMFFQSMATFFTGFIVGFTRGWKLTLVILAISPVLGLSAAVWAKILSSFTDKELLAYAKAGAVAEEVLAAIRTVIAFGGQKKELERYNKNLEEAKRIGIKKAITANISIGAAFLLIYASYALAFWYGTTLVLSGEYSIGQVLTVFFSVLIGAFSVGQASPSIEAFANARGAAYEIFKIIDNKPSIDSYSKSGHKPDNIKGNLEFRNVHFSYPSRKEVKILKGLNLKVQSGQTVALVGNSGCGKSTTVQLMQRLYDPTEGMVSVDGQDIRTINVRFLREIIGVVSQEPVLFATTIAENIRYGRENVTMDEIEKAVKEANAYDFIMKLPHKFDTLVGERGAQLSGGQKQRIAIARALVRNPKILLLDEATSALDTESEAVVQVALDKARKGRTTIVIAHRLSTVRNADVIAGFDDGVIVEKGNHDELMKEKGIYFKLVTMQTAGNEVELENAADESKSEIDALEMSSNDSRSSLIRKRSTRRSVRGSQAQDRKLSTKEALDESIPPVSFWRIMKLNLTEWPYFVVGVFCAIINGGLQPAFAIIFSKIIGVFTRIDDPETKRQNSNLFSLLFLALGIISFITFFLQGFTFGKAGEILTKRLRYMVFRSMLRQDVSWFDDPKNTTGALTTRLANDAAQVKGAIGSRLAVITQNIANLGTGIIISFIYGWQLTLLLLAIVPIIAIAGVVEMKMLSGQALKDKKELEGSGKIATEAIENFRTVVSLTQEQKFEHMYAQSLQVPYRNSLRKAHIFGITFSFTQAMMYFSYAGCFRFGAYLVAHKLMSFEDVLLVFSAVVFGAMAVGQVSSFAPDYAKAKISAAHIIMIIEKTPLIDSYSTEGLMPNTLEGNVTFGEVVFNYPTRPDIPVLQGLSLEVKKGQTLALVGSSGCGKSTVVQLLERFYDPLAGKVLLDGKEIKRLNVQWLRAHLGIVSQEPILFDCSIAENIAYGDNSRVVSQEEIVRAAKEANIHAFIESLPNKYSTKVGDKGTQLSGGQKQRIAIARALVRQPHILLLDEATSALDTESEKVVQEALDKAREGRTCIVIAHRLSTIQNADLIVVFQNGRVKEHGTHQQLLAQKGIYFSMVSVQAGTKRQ

Compound | melting point | Cellular efflux amount of daunomycin (%) [1] | pIC50 [2]
COc1cccc2c(=O)c3c(O)cc(OCC(O)CCl)cc3oc12 (stereo not shown) [Compound 1, 3-(3-chloro-2-hydroxypropoxy)-1-hydroxy-5-methoxy-9H-xanthen-9-one] | 184 °C |  | 
O=c1c2ccccc2oc2cc(OCC(O)CCl)cc(O)c12 (stereo not shown) [Compound 2, 3-(3-chloro-2-hydroxypropoxy)-1-hydroxy-9H-xanthen-9-one] | 144 °C |  | 
COc1cccc2c(=O)c3c(O)cc(OCC4CS4)cc3oc12 (stereo not shown) [Compound 3, 1-hydroxy-5-methoxy-3-(thiiran-2-ylmethoxy)-9H-xanthen-9-one] | 187 °C |  | 
COc1cccc2c(=O)c3c(OCC4CS4)cc(OCC4CS4)cc3oc12 (stereo not shown) [Compound 5, 1,3-bis(thiiran-2-ylmethoxy)-5-methoxy-9H-xanthen-9-one] | 240 °C |  | 
O=c1c2ccccc2oc2cc(OCC(O)CO)cc(O)c12 (stereo not shown) [Compound 6, 3-(2,3-dihydroxypropoxy)-1-hydroxy-9H-xanthen-9-one] | 170 °C |  | 
COc1cccc2c(=O)c3c(O)cc(OCC(O)CO)cc3oc12 (stereo not shown) [Compound 7, 3-(2,3-dihydroxypropoxy)-1-hydroxy-5-methoxy-9H-xanthen-9-one] | 189 °C |  | 
O=c1c2ccc3ccccc3c2oc2cc(OCC3CS3)cc(OCC3CS3)c12 (stereo not shown) [Compound 12, 8,10-bis(thiiran-2-ylmethoxy)-7H-benzo[c]xanthen-7-one] | 202 °C | 40.39 ± 4.38 % | 
O=c1c2c(O)cc(OCC3CS3)cc2oc2ccc3ccccc3c12 (stereo not shown) [Compound 14, 11-hydroxy-9-(thiiran-2-ylmethoxy)-12H-benzo[a]xanthen-12-one] | 167 to 168 °C | 64.81 ± 20.45% | 
O=c1c2c(OCC3CS3)cc(OCC3CS3)cc2oc2ccc3ccccc3c12 (stereo not shown) [Compound 15, 9,11-bis(thiiran-2-ylmethoxy)-12H-benzo[a]xanthen-12-one] | 225 to 226 °C | 40.04 ± 5.33 % | 
O=c1c2cc3ccccc3cc2oc2cc(OCC3CS3)cc(O)c12 (stereo not shown) [Compound 18, 1-hydroxy-3-(thiiran-2-ylmethoxy)-12H-benzo[b]xanthen-12-one] |  | 44.15 ± 5.08 % | 
O=c1c2cc3ccccc3cc2oc2cc(OCC3CS3)cc(OCC3CS3)c12 (stereo not shown) [Compound 19, 1,3-bis(thiiran-2-ylmethoxy)-12H-benzo[b]xanthen-12-one] |  | 42.45 ± 7.23 % | 
COc1cccc2c1C(=O)c1c(O)c3c(c(O)c1C2=O)C[C@@](O)(C(C)=O)C[C@@H]3O[C@H]1C[C@H](N)[C@H](O)[C@H](C)O1 [DNM, Daunomycin] |  |  | 4.59

Further lines, with some results ahead:

melting point | Compound | Cellular efflux amount of daunomycin (%) [1] | pIC50 [2]
149 °C | O=c1c2ccccc2sc2cc(OCC3CS3)cc(O)c12 (stereo not shown) [Compound 8, 1-hydroxy-3-(thiiran-2-ylmethoxy)-9H-thioxanthen-9-one] |  | 
107 °C | COc1cc(OCC(O)CCl)cc2oc3ccccc3c(=O)c12 (stereo not shown) [Compound 9, 3-(3-chloro-2-hydroxypropoxy)-1-methoxy-9H-xanthen-9-one] |  | 
151 °C | O=c1c2ccccc2sc2cc(OCC(O)CCl)cc(O)c12 (stereo not shown) [Compound 10, 3-(3-chloro-2-hydroxypropoxy)-1-hydroxy-9H-thioxanthen-9-one] |  | 
134 °C | O=c1c2ccccc2sc2cc(OCC(S)CCl)cc(O)c12 (stereo not shown) [Compound 11, 3-(3-chloro-2-mercaptopropoxy)-1-hydroxy-9H-thioxanthen-9-one] |  | 
125 °C | COc1cccc2c(=O)c3c(O)cc(OCC(S)CCl)cc3oc12 (stereo not shown) [Compound 13, 3-(3-chloro-2-mercaptopropoxy)-1-hydroxy-5-methoxy-9H-xanthen-9-one] |  | 
198 to 200 °C | O=c1c2c(OCC3CO3)cc(OCC3CO3)cc2oc2ccc3ccccc3c12 (stereo not shown) [Compound 17, 9,11-bis(oxiran-2-ylmethoxy)-12H-benzo[a]xanthen-12-one] |  | 
201 to 202 °C | O=c1c2cc3ccccc3cc2oc2cc(OCC3CO3)cc(O)c12 (stereo not shown) [Example 20, 1-hydroxy-3-(oxiran-2-ylmethoxy)-12H-benzo[b]xanthen-12-one] |  | 
